Tests used:
Assay type in all cases: in vivo, human
[1] = system: serum androstenedione (A4); assay: Phase 2 CAH study, Cohort 1 initial analysis: morning serum androstenedione (A4); settings: 80 mg QD oral; for A4 reduction (mean±SD): morning, baseline 116 to 604 ng/dL
Excerpt: The primary efficacy objective is to evaluate the efficacy of CRN04894, measured by the change from baseline in serum androstenedione (A4), with the primary efficacy endpoint being the change from baseline in the morning (before 11:00 AM) serum A4 at week 12.
(§1) Up to approximately 30 participants will be enrolled in the study. Each cohort will enroll at least 6 participants, with a possible expansion of up to an additional 6 participants in cohorts 1 and 2, to a maximum of 12 evaluable participants in those cohorts. The treatment duration will be up to Day 84 (12 Weeks) per participant. The total study duration will be up to 140 days (up to 4 weeks of screening, 12 weeks of treatment, and 4 weeks of follow-up) per participant. The visit frequency will be at Screening (2 visits), on Day 1 (Baseline), and at Weeks 2 (Day 14), 6 (Day 42), and 12 (Day 84). A Safety Follow-up Visit will occur 2 weeks following the last dose of CRN04894 (Week 14; Day 98), and a telephone call to collect any adverse events (AEs) will occur at 4 weeks after the last dose of CRN04894 (Week 16, Day 112). The study design is discussed in detail below.
(§2) Participants in all cohorts will continue their preexisting glucocorticoid replacement dosing regimens/doses throughout the study. In addition, starting the night of Day 1 and ending the night before the Week 12/end of treatment (EOT) visit, each cohort will administer CRN04894 between 22:00-24:00 (at approximately the same time each night) once daily (QD) before sleep.
(§3) Participants in Cohort 1 will receive 80 mg of CRN04894 QD. After at least 3 participants have completed 2 weeks of dosing with 80 mg of CRN04894 QD in Cohort 1, an interim analysis evaluating PD, PK, efficacy, and safety will be reviewed by the Safety Review Committee (SRC). If it is safe to continue, the SRC will recommend dosing of 120 mg of CRN04894 in Cohort 2. However, the SRC can recommend a lower dose (i.e., 40 mg of CRN04894 QD) in Cohort 2 based on review of safety data. The SRC also has the option to recommend increasing enrollment up to a total of 12 participants each in Cohorts 1 and/or 2. In this situation, expanded enrollment in the cohort will be completed, and data from the expanded cohort will be reviewed by the SRC prior to enrollment in the subsequent cohort.
(§4) A pharmacodynamic biomarker panel will be drawn. The biomarker panel will include the following: • 17-hydroxyprogesterone (17-OHP); • Adrenocorticotropic hormone (ACTH) (plasma); • Testosterone; • Androstenedione (A4); • Dehydroepiandrosterone (DHEA); • Dehydroepiandrosterone sulfate (DHEA-S); • 11-deoxycorticosterone (11-DOC); • 21-deoxycortisol; • 11β-hydroxyandrostenedione (11-OHA4); • 11-ketoandrostenedione (11-ketoA4); • 11β-hydroxytestosterone (11-OHT); • 11-ketotestosterone (11-ketoT); • Aldosterone; and • Renin.
(§5) Visits 2-7: Prior to receiving the morning GC replacement dose, a total of 2 blood draws (approximately 1 hour apart) for PD biomarkers will be drawn. The drawing of the PD biomarkers should be one of the first visit activities performed at the start of the visit. Visits should start as early in the morning as possible (preferably 07:00-08:00), so as to minimize any delay in administration of the morning GC dose and the timing of each study visit should be as consistent as possible. The second set of PD biomarkers should be drawn no later than 11:00 am.
(§6) The initial analysis summarizes the data of four participates (n=4) of Cohort 1 who received 80 mg of CRN04894 QD. There were three female/women participants (n=3) and one male/men participant (n=1).
(§7) Cohort 1 initial analysis of % changes in values from baseline of morning serum A4, morning serum 17-OHP, morning serum testosterone in females, morning serum testosterone in males, and morning serum A4/testosterone in males are presented in Table 4 below. These changes from baseline are also depicted in FIG. 1, FIG. 2, FIG. 4, FIG. 5, and FIG. 10, respectively. […]

[2] = system: serum 17-hydroxyprogesterone (17-OHP); assay: Phase 2 CAH study, Cohort 1 initial analysis: morning serum 17-hydroxyprogesterone (17-OHP); settings: 80 mg QD oral; for 17-OHP reduction (mean±SD): baseline 4740 to 6905 ng/dL
Excerpt: The secondary efficacy objective is to evaluate the efficacy of CRN04894, measured by the change from baseline in serum 17-hydroxyprogesterone (17-OHP), with the secondary efficacy endpoint being the change from baseline in the morning (before 11:00 AM) serum 17-OHP at week 12.
as §1, §2, §3, §4, §5, §6, §7

[3] = system: serum testosterone (female/women); assay: Phase 2 CAH study, Cohort 1 initial analysis: morning serum testosterone, female participants; settings: 80 mg QD oral; for testosterone reduction (mean±SD), female participants: morning, baseline 114 ng/dL
Excerpt: as §1, §2, §3, §4, §5, §6
(§8) Cohort 1 initial analysis of % changes in values from baseline of morning serum A4, morning serum 17-OHP, morning serum testosterone in females, morning serum testosterone in males, and morning serum A4/testosterone in males are presented in Table 4 below. These changes from baseline are also depicted in FIG. 1, FIG. 2, FIG. 4, FIG. 5, and FIG. 10, respectively.
(§9) Patients (aged ≥18 to 75, ≥16 years in USA) with classical CAH on a stable dose of glucocorticoid replacement for at least six months were enrolled and received 80 mg once daily, oral CRN04894 for 12 weeks followed by a four-week washout. […]

[4] = system: serum testosterone (male/men); assay: Phase 2 CAH study, Cohort 1 initial analysis: morning serum testosterone, male participants; settings: 80 mg QD oral, n=1
Excerpt: as §1, §2, §3, §4
(§10) Visits 2-7: Prior to receiving the morning GC replacement dose, a total of 2 blood draws (approximately 1 hour apart) for PD biomarkers will be drawn. […]

[5] = system: serum A4/testosterone (male/men); assay: Phase 2 CAH study, Cohort 1 initial analysis: morning serum A4/testosterone, male participants; settings: 80 mg QD oral, n=1; for A4/T ratio in the patient: baseline 0.3, normal <0.2
Excerpt: as §1, §2, §3, §4, §5, §6, §8, §9

[6] = system: plasma adrenocorticotropic hormone (ACTH); assay: Phase 2 CAH study, Cohort 1 initial analysis: morning plasma ACTH; settings: 80 mg QD oral; for variation in ACTH levels during treatment: morning, baseline 155 to 1009 pg/mL
Excerpt: as §1, §2, §3, §4, §10

[7] = Phase 2 CAH study, Cohort 1 initial analysis: menstruation; settings: 80 mg QD oral; three female participants in cohort
Excerpt: as §1, §2
Participants in Cohort 1 will receive 80 mg of CRN04894 QD. […]

CCOc1ccccc1-c1ccc(N2CCN(C(=O)C3(C(F)(F)F)CCC3)C[C@H]2CC)c(C(=O)N[C@@H]2CN3CCC2CC3)n1 [CRN04894, N-[(3S)-1-Azabicyclo[2.2.2]octan-3-yl]-6-(2-ethoxyphenyl)-3-[(2R)-2-ethyl-4-[1-(trifluoromethyl)cyclobutanecarbonyl]-piperazin-1-yl]pyridine-2-carboxamide]
% Change in morning serum A4 ([1]; Mean, Week 2, n=4): −86%
% Change in morning serum A4 ([1]; Mean, Week 6, n=4): −90%
% Change in morning serum A4 ([1]; Mean, Week 12, n=2): −88%
% Change in morning serum A4 ([1]; Median, Week 2, n=4): −88%
% Change in morning serum A4 ([1]; Median, Week 6, n=4): −94%
% Change in morning serum A4 ([1]; Median, Week 12, n=2): −88%
A4 reduction (mean±SD) ([1]; Week 2, n=4): 86%±10%
A4 reduction (mean±SD) ([1]; Week 6, n=4): 90%±9%
A4 reduction (mean±SD) ([1]; Week 12, n=2): 88%±15%
A4 reduction, onset and maintenance ([1]; all participants): rapid and profound A4 reduction within two weeks, which were maintained for the duration of therapy
A4 levels relative to upper limit of normal ([1]; all visits following treatment, normal 30-200 ng/dL females, 40-150 ng/dL males): all A4 levels ending below the upper limit of normal (<ULN) at all visits following treatment
% Change in morning 17-OHP ([2]; Mean, Week 2, n=4): −96%
% Change in morning 17-OHP ([2]; Mean, Week 6, n=4): −97%
% Change in morning 17-OHP ([2]; Mean, Week 12, n=2): −83%
% Change in morning 17-OHP ([2]; Median, Week 2, n=4): −96%
% Change in morning 17-OHP ([2]; Median, Week 6, n=4): −97%
% Change in morning 17-OHP ([2]; Median, Week 12, n=2): −83%
17-OHP reduction (mean±SD) ([2]; Week 2, n=4): 96%±2%
17-OHP reduction (mean±SD) ([2]; Week 6, n=4): 97%±0.3%
17-OHP reduction (mean±SD) ([2]; Week 12, n=2): 83%±22%
17-OHP reduction, onset and maintenance ([2]; all participants): rapid and profound 17-OHP reduction within two weeks, which were maintained for the duration of therapy
% Change in morning testosterone (female/women) ([3]; Mean, Week 2, n=3): −61%
% Change in morning testosterone (female/women) ([3]; Mean, Week 6, n=3): −65%
% Change in morning testosterone (female/women) ([3]; Mean, Week 12, n=2): −97%
% Change in morning testosterone (female/women) ([3]; Median, Week 2, n=3): −86%
% Change in morning testosterone (female/women) ([3]; Median, Week 6, n=3): −96%
% Change in morning testosterone (female/women) ([3]; Median, Week 12, n=2): −97%
testosterone reduction (mean±SD), female participants ([3]; Week 2, n=3): 61%±53%
testosterone reduction (mean±SD), female participants ([3]; Week 6, n=3): 65%±56%
testosterone reduction (mean±SD), female participants ([3]; Week 12, n=2): 97%±1%
% Change in morning testosterone (male/men) ([4]; Mean, Week 2): 9%
% Change in morning testosterone (male/men) ([4]; Mean, Week 6): 11%
% Change in morning testosterone (male/men) ([4]; Median, Week 2): 9%
% Change in morning testosterone (male/men) ([4]; Median, Week 6): 11%
% Change in morning A4/testosterone (male/men) ([5]; Mean, Week 2): −73%
% Change in morning A4/testosterone (male/men) ([5]; Mean, Week 6): −79%
% Change in morning A4/testosterone (male/men) ([5]; Median, Week 2): −73%
% Change in morning A4/testosterone (male/men) ([5]; Median, Week 6): −79%
A4/T ratio in the patient ([5]; week 2): 0.08
A4/T ratio in the patient ([5]; week 6): 0.06
ACTH levels, trend during treatment ([6]; in words): Modest variations in ACTH levels without a consistent directional trend
variation in ACTH levels during treatment ([6]; Week 2, n=4): −25%±57%
variation in ACTH levels during treatment ([6]; Week 6, n=4): 51%±87%
variation in ACTH levels during treatment ([6]; Week 12, n=2): −13%±67%
menstruation in female participants [7]: Two female participants in this cohort menstruated for the first time in over 2 years
